Reference: patent US20110301222A1, “COMBINATION THERAPY FOR THE TREATMENT OF CANCER” (Isis Pharmaceuticals, Inc., priority 2008, published 2011)
Marks after values point to notes of the source that are not given here. In the oligonucleotide strings, read from the 5' end, every base follows the letter of its sugar. An asterisk marks phosphorothioate; unmarked linkages are phosphodiester. Other units and linkages are bracketed, terminal groups are in braces. A string of capitals states the bases alone. e = 2'-O-(2-methoxyethyl) (MOE); [5mC] = 5-methylcytosine; d = 2'-deoxy (DNA)

Legend:
Type in all cases: in vivo, athymic nude mice
[1] = system: PC-3 Hormone-Refractory Prostate Cancer Xenograft; experiment: PC-3 hormone-refractory prostate cancer xenograft tumor volume in mice; conditions: for Mean Tumor Volume: ASO 50 mg/kg i.v., Taxotere 10 mg/kg IP once weekly, from 8 days after first ASO dose; for Percent Reduction in Mean Tumor Volumes (observed): Prostate PC3, Day 35, vs. vehicle control, negative = reduction, Taxotere 10 mg/kg
Experimental: (§1) To determine whether the eIF-4E ASO complements or enhances the activity of docetaxel, the effect of the combined use of the eIF-4E ASO and docetaxel on tumor volume in 3 human xenograft cancer models is studied as follows.
(§2) Xenograft studies are carried out as described in Graff et al. (2005) Cancer Res. 65:7462-7469. Five million human cancer cells representing non-small cell lung cancer (line A549; ATCC, accession no. CCL-185), hormone refractory prostate cancer (line PC-3; ATCC, accession no. CRL-1435), and ER-/PR-HER2-breast cancer (line MDA-231; ATCC, accession no. HTB-26) are injected subcutaneously in the flank of 6-8 week old, athymic nude mice (Harlan, Indianapolis, Ind.) in a 1:1 mixture of serum-free growth medium and matrigel (Becton Dickinson, Bedford, Mass., catalogue # 354234). Mice are monitored daily for palpable tumors.
(§3) When tumor volumes reach ˜50-100 mm^3, mice are randomized to treatment groups (Graff et al. (2007) J. Clin. Invest. 117:2638-48). Body weight is monitored each time tumors are measured.
(§4) For treatment, all mice are injected intravenously with the eIF-4E ASO in saline in a total volume of 200 μl. The ASO consists of the nucleotide sequence 5′-[…]-3′ (SEQ ID NO:1), in which every internucleoside linkage is a phosphorothioate linkage, nucleotides 1-5 and 16-20 reading from the 5′ end to the 3′ end each comprise a 2′-O-(2-methoxyethyl) sugar, nucleotides 6-15 are 2′-deoxynucleotides, every cytosine residue is a 5-methylcytosine, and which is in the form of a sodium salt. The mice are first injected with an initial loading dose of 50 mg/kg ASO for 3 consecutive days, followed by 50 mg/kg thrice weekly thereafter.
(§5) Taxotere® (docetaxel) dosing begins 8 days after the first ASO dose to allow time for reduction of eIF-4E protein expression. Mice are dosed with 2.5 or 10 mg/kg Taxotere® (Sanofi-Aventis) intraperitoneally (IP) in 1% ethanol in 5% dextrose water in a volume of 200 μl once weekly for 3 weeks.
(§6) Tumor volumes are calculated measuring the largest (L) and smallest (W) diameters with a caliper. The formula is: Volume=L×W^2×0.534. Tumor volume data are transformed to a log scale to equalize variance across time and treatment groups. The log volume data are analyzed with a two-way repeated measures analysis of variance by time and treatment using SAS PROC MIXED software (SAS Institute Inc, Cary, N.C.) using the spatial power covariance structure. Treatment groups are compared to the control group at each time point and overall. The data may be plotted as means and standard errors for each treatment group versus time. Additivity is assessed in two ways: (1) as an overall interaction effect between the ASO and Taxotere® in the repeated measures analysis, and (2) by using the Bliss Independence method on the final day of the study (C. I. Bliss (1939) Ann. Appl. Biol. 26:585-615). These two methods yield the same results.
(§7) The observed percent reductions in mean tumor volume at the conclusion of each study resulting from the various treatments are shown in Table 4. These are calculated as: […]
(§8) The “Expected if Additive” percent reductions in mean tumor volume shown in Table 4 are calculated using the Bliss Independence definition of additivity, as follows: […]

[2] = system: MDA-231 Breast Cancer Xenograft; experiment: MDA-231 breast cancer xenograft tumor volume in mice; conditions: for Percent Reduction in Mean Tumor Volumes (observed): Breast MDA-231, Day 33, vs. vehicle control, negative = reduction, + = increase, Taxotere 2.5 mg/kg; for Mean Tumor Volume: ASO 50 mg/kg i.v., Taxotere 2.5 mg/kg IP once weekly, from 8 days after first ASO dose
Experimental: as §1, §2, §3, §4, §5, §6, §7, §8

[3] = system: A549 Non-Small Cell Lung Cancer Xenograft; experiment: A549 non-small cell lung cancer xenograft tumor volume in mice; conditions: for Mean Tumor Volume: ASO 50 mg/kg i.v., docetaxel 10 mg/kg IP once weekly, from 8 days after first ASO dose; for Percent Reduction in Mean Tumor Volumes (observed): NSCLC A549, Day 50, vs. vehicle control, negative = reduction, docetaxel 10 mg/kg
Experimental: as §1, §2, §3, §4, §5, §6, §7, §8

Compound | Mean Tumor Volume ([1]; Day 7) | Mean Tumor Volume ([1]; Day 12) | Mean Tumor Volume ([1]; Day 15) | Mean Tumor Volume ([1]; Day 19) | Mean Tumor Volume ([1]; Day 22) | Mean Tumor Volume ([1]; Day 27) | Mean Tumor Volume ([1]; Day 29) | Mean Tumor Volume ([1]; Day 33) | Mean Tumor Volume ([1]; Day 35) | Percent Reduction in Mean Tumor Volumes (observed) [1] | Percent Reduction in Mean Tumor Volumes (observed) [2] | Mean Tumor Volume ([2]; Day 5) | Mean Tumor Volume ([2]; Day 8) | Mean Tumor Volume ([2]; Day 12) | Mean Tumor Volume ([2]; Day 15) | Mean Tumor Volume ([2]; Day 19) | Mean Tumor Volume ([2]; Day 22) | Mean Tumor Volume ([2]; Day 26) | Mean Tumor Volume ([2]; Day 29) | Mean Tumor Volume ([2]; Day 33) | also measured
CC(=O)O[C@@]12CO[C@@H]1C[C@H](O)[C@@]1(C)C(=O)[C@H](O)C3=C(C)[C@@H](OC(=O)[C@H](O)[C@@H](NC(=O)OC(C)(C)C)c4ccccc4)C[C@@](O)([C@@H](OC(=O)c4ccccc4)[C@H]21)C3(C)C [Docetaxel, (2R,3S)—N-carboxy-3-phenylisoserine,N-tert-butyl ester, 13-ester with 5β-20-epoxy-1,2α,4,7β,10β,13α-hexahydroxytax-11-en-9-one 4-acetate 2-benzoate, trihydrate, reference compound] | 46.3 mm^3 | 106.8 mm^3 | 134.7 mm^3 | 164.8 mm^3 | 171.7 mm^3 | 157.4 mm^3 | 162.7 mm^3 | 161.6 mm^3 | 167.0 mm^3 | −69.5%* | −1.4% | 78.7 mm^3 | 130.1 mm^3 | 180.9 mm^3 | 221.0 mm^3 | 270.3 mm^3 | 333.9 mm^3 | 384.9 mm^3 | 450.4 mm^3 | 529.6 mm^3 | Mean Tumor Volume ([3]; Day 7): 49.7 mm^3; Mean Tumor Volume ([3]; Day 10): 56.7 mm^3; Mean Tumor Volume ([3]; Day 15): 114.8 mm^3; Mean Tumor Volume ([3]; Day 18): 70.0 mm^3; Mean Tumor Volume ([3]; Day 22): 135.8 mm^3; Mean Tumor Volume ([3]; Day 25): 170.1 mm^3; Mean Tumor Volume ([3]; Day 29): 257.0 mm^3; Mean Tumor Volume ([3]; Day 32): 261.5 mm^3; Mean Tumor Volume ([3]; Day 36): 290.0 mm^3; Mean Tumor Volume ([3]; Day 39): 282.3 mm^3; Mean Tumor Volume ([3]; Day 43): 342.6 mm^3; Mean Tumor Volume ([3]; Day 46): 310.2 mm^3; Mean Tumor Volume ([3]; Day 50): 343.8 mm^3; Percent Reduction in Mean Tumor Volumes (observed) [3]: −29.6%
d(P-thio) ([2′-O-(2-methoxyethyl)] m5rU-([2′-O-(2-methoxyethyl)] rG-([2′-O-(2-methoxyethyl)] m5rU-([2′-O-(2-methoxyethyl)] m5rC-([2′-O-(2-methoxyethyl)] rA-T-A-T-T-m5C-m5C-T-G-G-A-([2′-O-(2-methoxyethyl)] m5rU-([2′-O-(2-methoxyethyl)] m5rC-([2′-O-(2-methoxyethyl)] m5rC-([2′-O-(2-methoxyethyl)] m5rU-([2′-O-(2-methoxyethyl)] m5rU) (antisense eT*eG*eT*e[5mC]*eA*dT*dA*dT*dT*d[5mC]*d[5mC]*dT*dG*dG*dA*eT*e[5mC]*e[5mC]*eT*eT) [eIF-4E ASO] | 49.8 mm^3 | 88.3 mm^3 | 130.3 mm^3 | 159.0 mm^3 | 218.8 mm^3 | 294.5 mm^3 | 343.9 mm^3 | 424.0 mm^3 | 491.2 mm^3 | −10.2% | +16.6% | 78.9 mm^3 | 129.4 mm^3 | 166.6 mm^3 | 221.0 mm^3 | 268.2 mm^3 | 356.3 mm^3 | 435.9 mm^3 | 574.1 mm^3 | 626.2 mm^3 | Effect on mean tumor volume (in words) ([2]; breast cancer model, ASO alone): non-statistically significant increase in mean tumor volume; Mean Tumor Volume ([3]; Day 7): 52.7 mm^3; Mean Tumor Volume ([3]; Day 10): 69.4 mm^3; Mean Tumor Volume ([3]; Day 15): 113.7 mm^3; Mean Tumor Volume ([3]; Day 18): 79.1 mm^3; Mean Tumor Volume ([3]; Day 22): 139.5 mm^3; Mean Tumor Volume ([3]; Day 25): 149.0 mm^3; Mean Tumor Volume ([3]; Day 29): 220.1 mm^3; Mean Tumor Volume ([3]; Day 32): 249.5 mm^3; Mean Tumor Volume ([3]; Day 36): 256.6 mm^3; Mean Tumor Volume ([3]; Day 39): 239.1 mm^3; Mean Tumor Volume ([3]; Day 43): 313.2 mm^3; Mean Tumor Volume ([3]; Day 46): 292.3 mm^3; Mean Tumor Volume ([3]; Day 50): 404.0 mm^3; Percent Reduction in Mean Tumor Volumes (observed) [3]: −17.3%
